# Tests used:
# [1] = target: T1, calcineurin (CN) catalytic subunit A (CNA); serine/threonine-protein phosphatase 2B catalytic subunit alpha isoform (Homo sapiens, UniProt Q08209); experiment: microscale thermophoresis (MST); supported by HDX-MS, CETSA and in vitro activation of CN; type: binding
# T1 construct: gene PPP3CA; human CNA/CNB (CNA: M1-N370, CNB: 16-170), His-tagged, E. coli; with calcineurin B (CNB)
# [2] = target: T2, calcineurin (CN) catalytic subunit A (CNA), CN-R254K (Homo sapiens, UniProt Q08209, R254K); experiment: microscale thermophoresis (MST); type: binding
# T2 construct: gene PPP3CA; human CNA/CNB (CNA: M1-N370, CNB: 16-170); with calcineurin B (CNB)
compound,measurement,setting,value
C=C(C)[C@@H]1[C@H]2OC(=O)[C@@H]1[C@]1(O)[C@H]3O[C@H]3[C@]3(CO3)[C@]1(C)[C@@H]2O [tutin],Kd,[1],0.28 ± 0.27 µM
same,Kd,[2],7.64 ± 4.48 µM
